The values below come from patent US20230242585A1, “IMMUNOMODULATORS” (Bristol-Myers Squibb Company, priority 2020, published 2023).

SMILES strings stand for the structures. Starred links: 1 amine or outer side, 2 acyl side, 3 side chain; linkers in the order of their positions; H or OH if unused. Positions of bridges follow the written chain, without caps; N, C: chain ends. Non-standard residues stand in square brackets, D forms with d. Residues, ends and D or L forms follow the SMILES beside them. X25 = CC(=O)N[C@@H](CNCC[C@H](N[*:1])C(=O)[*:2])[C@@H](O)[C@H](O)[C@H](O)CO; X24 = CC(=O)N[C@@H](CNC[C@H](N[*:1])C(=O)[*:2])[C@@H](O)[C@H](O)[C@H](O)CO; X1 = O=C([C@H](CNC[C@H](O)[C@H](O)[C@H](O)[C@H](O)CO)N[*:1])[*:2]; X34 = O=C([C@H](CCNC[C@H](O)[C@@H](O)[C@@H](O)CO)N[*:1])[*:2]; X33 = O=C([C@H](CNC[C@H](O)[C@@H](O)[C@@H](O)CO)N[*:1])[*:2]; X26 = O=C([C@H](CCNC[C@H](O)[C@H](O)[C@H](O)CO)N[*:1])[*:2]; X7 = O=C([C@H](CNC[C@H](O)[C@H](O)[C@H](O)CO)N[*:1])[*:2]; Trp(1-CH2COOH) = N[C@@H](Cc1cn(CC(=O)O)c2ccccc12)C(=O)O; Hyp = O=C(O)[C@@H]1C[C@@H](O)CN1; NMeNle = CCCC[C@H](NC)C(=O)O; NMeA = CN[C@@H](C)C(=O)O; Dab = NCC[C@H](N)C(=O)O

T1 sequence (Q9NZQ7 18-239): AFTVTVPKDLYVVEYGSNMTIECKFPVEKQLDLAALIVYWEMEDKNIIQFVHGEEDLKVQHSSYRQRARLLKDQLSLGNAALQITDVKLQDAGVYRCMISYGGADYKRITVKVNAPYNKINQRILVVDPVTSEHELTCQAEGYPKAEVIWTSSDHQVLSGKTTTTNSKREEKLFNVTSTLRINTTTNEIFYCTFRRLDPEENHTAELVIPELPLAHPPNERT

The assay concerns the target T1, PD-1/PD-L1 (Homo sapiens, UniProt Q9NZQ7).
T1 construct: TVMV protease site (linker) (C); made in house; host or cells: HEK293T cells
Kind of assay: PD-1/PD-L1 Homogenous Time-Resolved Fluorescence (HTRF) binding assay. The following applies: PD-L1-His 10 nM, PD-1-Ig 20 nM. From the text:
The ability of the compounds of formula (I) to bind to PD-L1 was investigated using a PD-1/PD-L1 Homogenous Time-Resolved Fluorescence (HTRF) binding assay.
The interaction of PD-1 and PD-L1 can be assessed using soluble, purified preparations of the extracellular domains of the two proteins. The PD-1 and PD-L1 protein extracellular domains were expressed as fusion proteins with detection tags, for PD-1, the tag was the Fc portion of Immunoglobulin (PD-1-Ig) and for PD-L1 it was the 6 histidine motif (PD-L1-His). All binding studies were performed in an HTRF assay buffer consisting of dPBS supplemented with 0.1% […] bovine serum albumin and 0.05% (v/v) Tween-20. For the h/PD-L1-His binding assay, inhibitors were pre-incubated with PD-L1-His (10 nM final) for 15 m in 4 µl of assay buffer, followed by addition of PD-1-Ig (20 nM final) in 1 µl of assay buffer and further incubation for 15 m. HTRF detection was achieved using europium crypate-labeled anti-Ig (1 nM final) and allophycocyanin (APC) labeled anti-His (20 nM final). Antibodies were diluted in HTRF detection buffer and 5 µl was dispensed on top of the binding reaction. The reaction mixture was allowed to equilibrate for 30 minutes and the resulting signal (665 nm/620 nm ratio) was obtained using an EnVision fluorometer. Additional binding assays were established between the human proteins PD-1-Ig/PD-L2-His (20 & 5 nM, respectively) and CD80-His/PD-L1-Ig (100 & 10 nM, respectively).
Recombinant Proteins: Human PD-1 (25-167) with a C-terminal human Fc domain of immunoglobulin G (Ig) epitope tag [hPD-1 (25-167)-3S-IG] and human PD-L1 (18-239) with a C-terminal His epitope tag [hPD-L1(18-239)-TVMV-His] were expressed in HEK293T cells and purified sequentially by ProteinA affinity chromatography and size exclusion chromatography. Human PD-L2-His and CD80-His was obtained through commercial sources.
Table 1 lists the IC50 values for representative examples of this disclosure measured in the PD-1/PD-L1 Homogenous Time-Resolved Fluorescence (HTRF) binding assay.
As usually defined, the IC50 is the concentration that inhibits the measured activity by half. A low value points to greater potency. With `CCCC[C@H]1C(=O)N(C)[C@@H](CCCC)C(=O)N[C@@H](CC(C)C)C(=O)N[C@H](C(=O)NCC(N)=O)CSCC(=O)N[C@@H](Cc2ccc(O)cc2)C(=O)N(C)[C@@H](C)C(=O)N[C@@H](CC(N)=O)C(=O)N2CCC[C@H]2C(=O)N[C@@H](CNC[C@H](O)[C@H](O)[C@H](O)CO)C(=O)N[C@@H](CC(C)C)C(=O)N2C[C@H](O)C[C@H]2C(=O)N[C@@H](Cc2c[nH]c3ccccc23)C(=O)N[C@@H](CCNC[C@H](O)[C@H](O)[C@H](O)CO)C(=O)N[C@@H](Cc2cn(CC(=O)O)c3ccccc23)C(=O)N1C` [Example 2003] ({CH2CO}-Y[NMeA]NP[X7]L[Hyp]W[X26][Trp(1-CH2COOH)][NMeNle][NMeNle]LCG-NH2; thioether N-14), the IC50 came to 9.9 nM. The result for `CCCC[C@H]1C(=O)N(C)[C@@H](CCCC)C(=O)N[C@@H](CC(C)C)C(=O)N[C@H](C(=O)NCC(N)=O)CSCC(=O)N[C@@H](Cc2ccc(O)cc2)C(=O)N(C)[C@@H](C)C(=O)N[C@@H](CC(N)=O)C(=O)N2CCC[C@H]2C(=O)N[C@@H](CNC[C@H](O)[C@@H](O)[C@@H](O)CO)C(=O)N[C@@H](CC(C)C)C(=O)N2C[C@H](O)C[C@H]2C(=O)N[C@@H](Cc2c[nH]c3ccccc23)C(=O)N[C@@H](CCNC[C@H](O)[C@@H](O)[C@@H](O)CO)C(=O)N[C@@H](Cc2cn(CC(=O)O)c3ccccc23)C(=O)N1C` [Example 2004] ({CH2CO}-Y[NMeA]NP[X33]L[Hyp]W[X34][Trp(1-CH2COOH)][NMeNle][NMeNle]LCG-NH2; thioether N-14) reads 6.7 nM; that for `CCCC[C@H]1C(=O)N(C)[C@@H](CCCC)C(=O)N[C@@H](CC(C)C)C(=O)N[C@H](C(=O)NCC(N)=O)CSCC(=O)N[C@@H](Cc2ccc(O)cc2)C(=O)N(C)[C@@H](C)C(=O)N[C@@H](CC(N)=O)C(=O)N2CCC[C@H]2C(=O)N[C@@H](CNC[C@H](O)[C@H](O)[C@H](O)CO)C(=O)N[C@@H](CC(C)C)C(=O)N2C[C@H](O)C[C@H]2C(=O)N[C@@H](Cc2c[nH]c3ccccc23)C(=O)N[C@@H](CCN)C(=O)N[C@@H](Cc2cn(CC(=O)O)c3ccccc23)C(=O)N1C` [Example 2006] ({CH2CO}-Y[NMeA]NP[X7]L[Hyp]W[Dab][Trp(1-CH2COOH)][NMeNle][NMeNle]LCG-NH2; thioether N-14), 12 nM. Under `CCCC[C@H]1C(=O)N(C)[C@@H](CCCC)C(=O)N[C@@H](CC(C)C)C(=O)N[C@H](C(=O)NCC(N)=O)CSCC(=O)N[C@@H](Cc2ccc(O)cc2)C(=O)N(C)[C@@H](C)C(=O)N[C@@H](CC(N)=O)C(=O)N2CCC[C@H]2C(=O)N[C@@H](CNC[C@H](O)[C@H](O)[C@H](O)[C@H](O)CO)C(=O)N[C@@H](CC(C)C)C(=O)N2C[C@H](O)C[C@H]2C(=O)N[C@@H](Cc2c[nH]c3ccccc23)C(=O)N[C@@H](CCN)C(=O)N[C@@H](Cc2cn(CC(=O)O)c3ccccc23)C(=O)N1C` [Example 2007] ({CH2CO}-Y[NMeA]NP[X1]L[Hyp]W[Dab][Trp(1-CH2COOH)][NMeNle][NMeNle]LCG-NH2; thioether N-14) stands 5.1 nM. The result for `CCCC[C@H]1C(=O)N(C)[C@@H](CCCC)C(=O)N[C@@H](CC(C)C)C(=O)N[C@H](C(=O)NCC(N)=O)CSCC(=O)N[C@@H](Cc2ccc(O)cc2)C(=O)N(C)[C@@H](C)C(=O)N[C@@H](CC(N)=O)C(=O)N2CCC[C@H]2C(=O)N[C@@H](CNC[C@H](NC(C)=O)[C@@H](O)[C@H](O)[C@H](O)CO)C(=O)N[C@@H](CC(C)C)C(=O)N2C[C@H](O)C[C@H]2C(=O)N[C@@H](Cc2c[nH]c3ccccc23)C(=O)N[C@@H](CCNC[C@H](NC(C)=O)[C@@H](O)[C@H](O)[C@H](O)CO)C(=O)N[C@@H](Cc2cn(CC(=O)O)c3ccccc23)C(=O)N1C` [Example 2009] ({CH2CO}-Y[NMeA]NP[X24]L[Hyp]W[X25][Trp(1-CH2COOH)][NMeNle][NMeNle]LCG-NH2; thioether N-14) reads 5.7 nM.
